How the values were obtained:
Mouse STC-1 cells = assay: STC-1 GLP-1 assay (GLP-1 secretion); assay type: cell-based; conditions: Mouse STC-1 cells, GLP-1 secretion, 2 h; read-out: Mouse STC-1 HTRF GLP-1 Activity (EC50)
Outline: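 Secreted active GLP-1 was measured by HTRF after overnight room-temperature incubation of supernatant with the conjugates. Supernatants came from a 2 h, 37° C. compound exposure (12-point half-log series) in HBSS with DPP-IV and protease inhibitors and 0.1% fatty acid free BSA. STC-1 cells had been seeded two days earlier in stripped-serum DMEM; EC50 reported.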

[1] = Pharmacokinetic profile in mice after oral gavage; assay type: in vivo, mouse; conditions: mouse; fasted male Hilltop mice, 10 mg/kg oral gavage, plasma; read-out: Cmax
Outline: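 Plasma exposure (Cmax, AUC) by non-compartmental analysis of LC-MS/MS data, orbital blood taken at 0, 0.25, 0.5, 1, 2 and 4 h, each value averaging three mice. Dosing: 10 mg/kg oral gavage to overnight-fasted male Hilltop mice (8 weeks), vehicle PEG400/CMC/Tween-80.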

Row | SMILES | EC50 (Mouse STC-1 cells) [nM] | Cmax [1] [ng/mL]
1 | N[C@@H](CS(=O)(=O)O)C(=O)NCCC1CCN(c2cc(N3CC[C@H]3C(=O)NCCc3ccc(C(F)(F)F)cc3)nc(C(F)(F)F)n2)CC1 [Compound 278, (R)-2-amino-3-oxo-3-((2-(1-(2-(trifluoromethyl)-6-((S)-2-((4-(trifluoromethyl)-phenethyl)carbamoyl)azetidin-1-yl)pyrimidin-4-yl)piperidin-4-yl)ethyl)amino)-propane-1-sulfonic acid] | < 100 | 3.7
2 | N#Cc1ccc(CCNC(=O)[C@@H]2CCCN2c2cc(N3CCC(CCCC(=O)NCCS(N)(=O)=O)CC3)nc(C(F)(F)F)n2)cc1 [Compound 62, (S)-N-(4-cyanophenethyl)-1-(6-(4-(4-oxo-4-((2-sulfamoylethyl)amino)butyl)piperidin-1-yl)-2-(trifluoromethyl)pyrimidin-4-yl)pyrrolidine-2-carboxamide] | < 100 | 33
3 | N#Cc1ccc(CCNC(=O)[C@@H]2CCCN2c2cc(N3CCC(CCCC(=O)NCS(=O)(=O)O)CC3)cc(C(F)(F)F)n2)cc1 [Compound 198, (S)-(4-(1-(2-(2-((4-cyanophenethyl)carbamoyl)pyrrolidin-1-yl)-6-(trifluoromethyl)pyridin-4-yl)piperidin-4-yl)butanamido)methanesulfonic acid] | 100 to 999 | 6.8
4 | N#Cc1ccc(CCNC(=O)[C@@H]2CCN2c2cc(N3CCC(CCNC(=O)NCS(=O)(=O)O)CC3)nc(C(F)(F)F)n2)cc1 [Compound 270, (S)-(3-(2-(1-(6-(2-((4-cyanophenethyl)carbamoyl)azetidin-1-yl)-2-(trifluoromethyl)pyrimidin-4-yl)piperidin-4-yl)ethyl)ureido)-methanesulfonic acid] | < 100 | 5.4
5 | N#Cc1ccc(CCNC(=O)[C@@H]2CCN2c2cc(N3CCC(CCCC(=O)NCCNC(=N)N)CC3)nc(C(F)(F)F)n2)cc1 [Compound 282, (S)—N-(4-cyanophenethyl)-1-(6-(4-(4-((2-guanidinoethyl)amino)-4-oxobutyl)piperidin-1-yl)-2-(trifluoromethyl)pyrimidin-4-yl)azetidine-2-carboxamide] | 100 to 999 | 4.2
6 | N#Cc1ccc(CCNC(=O)[C@@H]2CCN2c2cc(N3CCC(CCNC(=O)NCCOCCNC(=O)NCCS(=O)(=O)O)CC3)nc(C(F)(F)F)n2)cc1 [Compound 358, (S)-15-(1-(6-(2-((4-cyanophenethyl)carbamoyl)azetidin-1-yl)-2-(trifluoromethyl)pyrimidin-4-yl)piperidin-4-yl)-4,12-dioxo-8-oxa-3,5,11,13-tetraazapentadecane-1-sulfonic acid] | < 100 | 3.4
7 | N#Cc1ccc(CCNC(=O)[C@@H]2CCCN2c2cc(N3CCC(CCNc4c(NCCC(=O)O)c(=O)c4=O)CC3)nc(C(F)(F)F)n2)cc1 [Compound 368, (S)-3-((2-((2-(1-(6-(2-((4-cyanophenethyl)carbamoyl)pyrrolidin-1-yl)-2-(trifluoromethyl)pyrimidin-4-yl)piperidin-4-yl)ethyl)amino)-3,4-dioxocyclobut-1-en-1-yl)amino)propanoic acid] | 100 to 999 | 2.5
8 | N#Cc1ccc(CCNC(=O)[C@@H]2CCN2c2cc(N3CCC(CCNC(=O)NCCOCCNC(=N)N)CC3)nc(C(F)(F)F)n2)cc1 [Compound 287, (S)-1-(6-(4-(1-amino-1-imino-9-oxo-5-oxa-2,8,10-triazadodecan-12-yl)piperidin-1-yl)-2-(trifluoromethyl)pyrimidin-4-yl)-N-(4-cyanophenethyl)azetidine-2-carboxamid] | < 100 | 5
9 | N#Cc1ccc(CCNC(=O)[C@@H]2CCCN2c2cc(N3CCC(CCNS(=O)(=O)CCNC(=O)[C@@H](N)CS(=O)(=O)O)CC3)nc(C(F)(F)F)n2)cc1 [Compound 125, (R)-2-amino-3-((2-(N-(2-(1-(6-((S)-2-((4-cyanophenethyl)carbamoyl)-pyrrolidin-1-yl)-2-(trifluoromethyl)-pyrimidin-4-yl)piperidin-4-yl)ethyl)sulfamoyl)ethyl)amino)-3-oxopropane-1-sulfonic acid] | 100 to 999 | 0.14
10 | N#Cc1ccc(CCNC(=O)[C@@H]2CCCN2c2cc(N3CCC(CCCC(=O)O)CC3)cc(C(F)(F)F)n2)cc1 [Compound 197, (S)-4-(1-(2-(2-((4-cyanophenethyl)carbamoyl)pyrrolidin-1-yl)-6-(trifluoromethyl)pyridin-4-yl)piperidin-4-yl)butanoic acid] | < 100 | 143
11 | N#Cc1ccc(CCNC(=O)[C@@H]2CCCN2c2cc(-c3ccc(CO)cc3)cc(C(F)(F)F)n2)cc1 [Compound 204, (S)—N-(4-cyanophenethyl)-1-(4-(4-(hydroxymethyl)phenyl)-6-(trifluoromethyl)pyridin-2-yl)pyrrolidine-2-carboxamide] | 100 to 999 | 4.4
12 | N#Cc1ccc(CCNC(=O)[C@@H]2CCCN2c2cc(-c3ccc(CCC(=O)NCS(=O)(=O)O)cc3)cc(C(F)(F)F)n2)cc1 [Compound 206, (S)-(3-(4-(2-(2-((4-cyanophenethyl)carbamoyl)pyrrolidin-1-yl)-6-(trifluoromethyl)pyridin-4-yl)phenyl)propanamido)methanesulfonic acid] | 100 to 999 | 3.8
13 | N#Cc1ccc(CCNC(=O)[C@@H]2CCCN2c2cc(N3CCC(CCCC(=O)NCCS(=O)(=O)NCC(=O)O)CC3)nc(C(F)(F)F)n2)cc1 [Compound 115, (S)-2-(2-(4-(1-(6-(2-((4-cyanophenethyl)carbamoyl)pyrrolidin-1-yl)-2-(trifluoromethyl)pyrimidin-4-yl)piperidin-4-yl)butanamido)-ethylsulfonamido)acetic acid] | < 100 | 2.7
14 | N#Cc1ccc(CCNC(=O)[C@@H]2CCCN2c2cc(N3CCC(CCCC(=O)NCCS(=O)(=O)O)CC3)cc(C(F)(F)F)n2)cc1 [Compound 199, (S)-2-(4-(1-(2-(2-((4-cyanophenethyl)carbamoyl)pyrrolidin-1-yl)-6-(trifluoromethyl)pyridin-4-yl)piperidin-4-yl)butanamido)ethanesulfonic acid] | < 100 | 1
15 | N#Cc1ccc(CCNC(=O)[C@@H]2CCN2c2cc(N3CCC(CO)CC3)nc(C(F)(F)F)n2)cc1 [Compound 219, (S)—N-(4-cyanophenethyl)-1-(6-(4-(hydroxymethyl)piperidin-1-yl)-2-(trifluoromethyl)pyrimidin-4-yl)azetidine-2-carboxamide] | < 100 | 75
16 | N#Cc1ccc(CCNC(=O)[C@@H]2CCCN2c2cc(N3CCC(CCC(=O)O)CC3)nc(C(F)(F)F)n2)cc1 [Compound 28] | 100 to 999 | 75
17 | N#Cc1ccc(CCNC(=O)[C@@H]2CCCN2c2cc(N3CCC(CCN)CC3)nc(C(F)(F)F)n2)cc1 [Compound 50, (S)-1-(6-(4-(2-aminoethyl)piperidin-1-yl)-2-(trifluoromethyl)pyrimidin-4-yl)-N-(4-cyanophenethyl)pyrrolidine-2-carboxamide] | 1000 to 30000 | 214
18 | N#Cc1ccc(CCNC(=O)[C@@H]2CCCN2c2cc(N3CCC(CCNC(=N)N)CC3)nc(C(F)(F)F)n2)cc1 [Compound 126, (S)—N-(4-cyanophenethyl)-1-(6-(4-(2-guanidinoethyl)piperidin-1-yl)-2-(trifluoromethyl)pyrimidin-4-yl)pyrrolidine-2-carboxamide] | 100 to 999 | 2
19 | N#Cc1ccc(CCNC(=O)[C@@H]2CCN2c2cc(N3CCC(CCO)CC3)nc(C(F)(F)F)n2)cc1 [Compound 223, (S)-N-(4-cyanophenethyl)-1-(6-(4-(2-hydroxyethyl)piperidin-1-yl)-2-(trifluoromethyl)pyrimidin-4-yl)azetidine-2-carboxamide] | < 100 | 44
20 | N#Cc1ccc(CCNC(=O)[C@@H]2CCCN2c2cc(N3CCC(CCC(=O)NCCS(=O)(=O)O)CC3)nc(C(F)(F)F)n2)cc1 [Compound 56, (S)-2-(3-(1-(6-(2-((4-cyanophenethyl)carbamoyl)pyrrolidin-1-yl)-2-(trifluoromethyl)pyrimidin-4-yl)piperidin-4-yl)propanamido)ethanesulfonic acid] | 100 to 999 | 14
